Among the data in patent publication US20150072969A1, “PHENYL ALKANOIC ACID DERIVATIVES AS GPR AGONISTS” (PIRAMAL ENTERPRISES LIMITED, priority 2012, published 2015) are EC50 values, retold here.

Molecules are shown by their SMILES. Where only a bound is given, the exact number is not on record here.

The target in the assay is T1, human GPR40 (Homo sapiens, UniProt O14842).
T1 construct: expressed in transfected cells
The assay is described as follows: Inositol phosphate accumulation assay in FFAR1 (GPR40) CHOK1 clone. The format is cell-based. Particulars: GPR40 agonist activity; intracellular inositol phosphate release in CHOK1 cells stably expressing recombinant human GPR40; 1 h incubation at 37° C. The protocol: The inositol phosphate accumulation assay was performed to characterise the GPR40 agonist activity of the compounds of the present invention.
The assay was carried out in accordance with the method substantially as described in Diabetes, 2008, 57(8):2211-2219 and PLoS One, 2011, 6(11):e27270.
A stable FFAR1 (GPR40) CHOK1 clone was used to determine the GPR40 agonist activity of the test compounds (compounds of the present invention synthesized in the above Examples). The stable FFAR1 (GPR40) CHOK1 clone expressing recombinant human GPR40 was generated according to the procedure described herein below.
Full-length human GPR40 cDNA (Accession Number: NM_005303) was cloned into mammalian expression vector (pReceiver) and was stably transfected into (Chinese Hamster Ovary) CHOK1 cells using Amaxa technology. 2 μg of pReceiver hGPR40 were transfected into 1×10^6 CHOK1 cells in 6 well plates. The cells were split into three 100 mm cell culture plates on the second day and geneticin (800 μg/ml) was added to the cell culture on the third day. The selection medium comprising Ham's F-12 K supplemented with FBS (10%) and geneticin (800 μg/ml) was changed every three days until colonies were formed. The colonies isolated were further purified (single cell cloning) after 14 days to obtain pure isogenic single cell homogenous population of cells expressing the GPR40 receptor protein on the cell surface. GPR40 receptor expression on cell surface was measured by flow cytometry. The in-house transgenic cell line (clone) created was labeled as FFAR1 (GPR40) CHOK1 clone.
FFAR1 (GPR40) CHOK1 cells were suspended in culture medium comprising Ham's F-12 K supplemented with FBS (10%) and geneticin (800 μg/ml). Cells were seeded at a density of 2×10^4 cells per well in a 384 well tissue culture plate and cultured overnight. The medium was discarded and the cells were further resuspended in a stimulation buffer comprising HEPES (10 mM), glucose (5.5 mM), CaCl2 (1 mM), NaCl (150 mM), KCl (4.2 mM), MgCl2 (0.5 mM) and LiCl (50 mM) having a pH of 7.6. The test compounds (representative compounds of Formula (I)) 10 mM stock were prepared in DMSO and subsequently log fold dilution of the test compounds were carried out in the stimulation buffer. Various concentrations of the test compounds and the standard DMSO solution were added to each well. The plates were further incubated at 37° C., 5% CO2 incubator for 1 h. The final concentration of the test compounds in the each well varied from 1 μM to 10 μM. The DMSO concentration in the assay was 0.1% or less. After incubation, lysis reagent and anti-Tb conjugate were added to each well. The intracellular Inositol Phosphate release and accumulation in the test compounds were measured by the binding ability of the anti-Tb conjugate with the inositol phosphate inherently produced in each well as compared with the inositol phosphate coupled to dye d2 added externally to each well. The plates were then read using Perkin Elmer (Envision) plate reader and the fluorescence signal was captured. The EC50 values for the test compounds were calculated from the non linear regression sigmoidal curve graphs plotted between the concentrations of the test compounds and the fluorescence intensity.

T1 sequence (O14842 whole entry): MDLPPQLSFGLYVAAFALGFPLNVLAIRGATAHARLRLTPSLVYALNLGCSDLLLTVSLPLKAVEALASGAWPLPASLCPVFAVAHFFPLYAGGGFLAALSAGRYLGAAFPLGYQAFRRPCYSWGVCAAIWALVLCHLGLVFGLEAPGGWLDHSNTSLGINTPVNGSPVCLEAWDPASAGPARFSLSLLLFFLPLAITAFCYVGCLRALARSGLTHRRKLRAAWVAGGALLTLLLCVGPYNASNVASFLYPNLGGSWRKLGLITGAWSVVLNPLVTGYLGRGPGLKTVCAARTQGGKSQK

For `Cc1cc(OCC2CCOCC2)cc(C)c1-c1cccc(COc2ccc(C3(CC(=O)O)COC3)cc2)c1` [Example 43, 2-(3-(4-((2′,6′-Dimethyl-4′-((tetrahydro-2H-pyran-4-yl)methoxy)-[1,1′-biphenyl]-3-yl)methoxy)phenyl)oxetan-3-yl)acetic acid], the EC50 was < 100 nM. Then `O=C(O)CC1(c2ccc(OCc3cccc(-c4cnc(N5CCOCC5)nc4)c3)cc2)COC1` [Example 108, 2-(3-(4-((3-(2-Morpholinopyrimidin-5-yl)benzyl)oxy)phenyl)oxetan-3-yl)acetic acid], with < 100 nM; and `Cc1cc(-c2cccc(COc3ccc(C4(CC(=O)O)COC4)cc3)c2)cc(C)c1OCCCS(C)(=O)=O` [Example 79, 2-(3-(4-((3′,5′-Dimethyl-4′-(3-(methylsulfonyl)propoxy)-[1,1′-biphenyl]-3-yl)methoxy)phenyl)oxetan-3-yl)acetic acid], with 100 to 500 nM; and `Cc1cc(OCCCS(C)(=O)=O)cc(C)c1-c1cccc(COc2ccc(C3(CC(=O)O)COC3)cc2F)c1` [Example 16, 2-(3-(4-((2′,6′-Dimethyl-4′-(3-(methylsulfonyl)propoxy)-[1,1′-biphenyl]-3-yl)methoxy)-3-fluorophenyl)oxetan-3-yl)acetic acid], with > 500 nM.

As to `Cc1cc(OCC2CCOC2)cc(C)c1-c1cccc(COc2ccc(C3(CC(=O)O)COC3)cc2)c1` (stereo not drawn) [Example 41, 2-(3-(4-((2′,6′-Dimethyl-4′-((tetrahydrofuran-3-yl)methoxy)-[1,1′-biphenyl]-3-yl)methoxy)phenyl)oxetan-3-yl)acetic acid], the EC50 was < 100 nM. `O=C(O)CC1(c2ccc(OCc3ccc(C(F)(F)F)c(F)c3)cc2)COC1` [Example 32, 2-(3-(4-((3-Fluoro-4-(trifluoromethyl)benzyl)oxy)phenyl)oxetan-3-yl)acetic acid]: the EC50 was > 500 nM. Then `O=C(O)CC1(c2ccc(OCc3cccc(-c4ccc(C(F)(F)F)cc4)c3)c(F)c2)COC1` [Example 98, 2-(3-(3-Fluoro-4-((4′-(trifluoromethyl)-[1,1′-biphenyl]-3-yl)methoxy)phenyl)oxetan-3-yl)acetic acid], with > 500 nM; and `O=C(O)CC1(c2ccc(OCc3cccc(F)c3)cc2)COC1` [Example 102, 2-(3-(4-((3-Fluorobenzyl)oxy)phenyl)oxetan-3-yl)acetic acid], with > 500 nM. Then `O=C(O)CC1(c2ccc(OCc3ccc(-c4ccccc4)cc3)c(F)c2)COC1` [Example 14, 2-(3-(4-([1,1′-Biphenyl]-4-ylmethoxy)-3-fluorophenyl)oxetan-3-yl)acetic acid], with > 500 nM; and `CC(C)Sc1ccc(-c2cccc(COc3ccc(C4(CC(=O)O)COC4)cc3)c2)cc1` [Example 89, 2-(3-(4-((4′-(Isopropylthio)-[1,1′-biphenyl]-3-yl)methoxy)phenyl)oxetan-3-yl)acetic acid], with 100 to 500 nM; and `O=C(O)CC1(c2ccc(OCc3cccc(-c4ccccc4)c3)c(F)c2)COC1` [Example 12, 2-(3-(4-([1,1′-Biphenyl]-3-ylmethoxy)-3-fluorophenyl)oxetan-3-yl)acetic acid], with > 500 nM.

On to `Cc1cc(OCCCS(C)(=O)=O)ccc1-c1cccc(COc2ccc(C3(CC(=O)O)COC3)cc2)c1` [Example 77, 2-(3-(4-((2′-Methyl-4′-(3-(methylsulfonyl)propoxy)-[1,1′-biphenyl]-3-yl)methoxy)phenyl)oxetan-3-yl)acetic acid], for which the EC50 was < 100 nM.

Take `CC1(C)CCC(C)(C)c2cc(COc3ccc(C4(CC(=O)O)COC4)cc3)ccc21` [Example 18, 2-(3-(4-((5,5,8,8-Tetramethyl-5,6,7,8-tetrahydronaphthalen-2-yl)methoxy)phenyl)oxetan-3-yl)acetic acid]: the EC50 was in the range of 100 to 500 nM. Then `Cc1cc(OC[C@@H]2CCOC2)cc(C)c1-c1cccc(COc2ccc(C3(CC(=O)O)COC3)cc2)c1` [Example 49, (R)-2-(3-(4-((2′,6′-dimethyl-4′-((tetrahydrofuran-3-yl)methoxy)-[1,1′-biphenyl]-3-yl)methoxy)phenyl)oxetan-3-yl)acetic acid], with < 100 nM; and `O=C(O)CC1(c2ccc(OCc3cccc(-c4ccc(OCC5CCC5)cc4)c3)cc2)COC1` [Example 75, 2-(3-(4-((4′-(Cyclobutylmethoxy)-[1,1′-biphenyl]-3-yl)methoxy)phenyl)oxetan-3-yl)acetic acid], with > 500 nM.

The EC50 is the concentration that produces a half-maximal response.
